The source of these data is patent US8288444B2 (Codman & Shurtleff, Inc., priority 2008, dated 2012).

The conditions of series [1]: glycinate ester of the parent named in the row; cited from earlier work.
Series [2] has as its system PC 12 cells, βA (25-35). The series can be described thus: in vitro protection of PC 12 cells against beta amyloid (25-35) insult. The note with it: for potency as neuroprotectant against beta amyloid relative to curcumin: both peptides. Format: cell-based. The text has this: Park, J. Nat. Prod., 65, 9 Sep.
Series [3] addresses amyloid beta oligomers (Homo sapiens, UniProt P05067). As to conditions: cited from earlier work; for prevention of toxic beta amyloid oligomer formation in vitro: Yang.
Series [4] deals with differentiated neuroblastoma cells. The note with it: Yang 2005; cited from earlier work.
In series [5] the test system is Alzheimer's Transgenic mice. The note with it: 160 ppm in the diet; Lim 2001; cited from earlier work.
Series [6] concerns middle aged female Sprague-Dawley rats. The note with it: 500 ppm dietary curcumin; Frautschy 2001; cited from earlier work.
The conditions of series [7]: cited from earlier work.
The test system of series [8] is UGT. The note with it: Caco-2 cells; cited from earlier work.
In series [9] the test system is Pgp. The note with it: freshly-plated and 72 hour-cultured hepatocytes; dose-dependent; cited from earlier work.
The test system of series [10] is antigen-stimulated spleen cytotoxic T-lymphocyte proliferation. As to conditions: oral pretreatment with curcumin before MPA administration; mice; cited from earlier work.
For series [11] the following is noted: cited from earlier work. The source holds these as a separate data set.
Series [12] can be described thus: carbamazepine peak brain tissue concentration by route (Barakat).
For series [13] the following is noted: ester prodrug vs parent estradiol.

Where two headings read alike, the source gives them in different places.

amyloid beta oligomers, sequence (P05067 672-713 limits assumed): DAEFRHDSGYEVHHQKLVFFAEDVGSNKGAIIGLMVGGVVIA

As for 17β-estradiol, the “Half-life Of glycinate ester In plasma” value in series [1] was 1 to 2 min.

As to `COc1cc(/C=C/C(=O)COC(=O)/C=C/c2ccc(O)c(OC)c2)ccc1O` [compound 31, 4″-(3′″-methoxy-4′″-hydroxyphenyl)-2″-oxo-3″-enebutanyl3-(3′-methoxy-4′ hydroxyphenyl) propenoate], the “potency as neuroprotectant against beta amyloid relative to curcumin” value in [2] (analysis of the Park data) was around 5 fold.

Turning to `COc1cc(C=CC(=O)CC(=O)C=Cc2ccc(O)cc2)ccc1O` [compound 32, 1-(4-hydroxy-3-methoxyphenyl)-7-(4-hydroxyphenyl)-1,6-heptadiene-3,5-dione], the “potency as neuroprotectant against beta amyloid relative to curcumin” value in series [2] (analysis of the Kim data) is around 1.5 fold.

As for `O=C(C=Cc1ccc(O)cc1)CC(=O)C=Cc1ccc(O)cc1` [compound 33, 1,7-bis(4-hydroxyphenyl)-1,6-heptadiene-3,5-dione], the “potency relative to natural curcumin in surviving toxic insult by β amyloid” value in series [2] was “about twice as potent”. The “potency as neuroprotectant against beta amyloid relative to curcumin” value in series [2] (analysis of the Kim data) is recorded as around 2 fold.

On to `COc1cc(/C=C/C(=O)CC(=O)/C=C/c2ccc(O)c(OC)c2)ccc1O` [curcumin, (E,E)-1,7-bis(4-hydroxy-3-methoxyphenyl)-1,6-heptadiene-3,5-dione], for which, in [3] (0.25-4 uM curcumin), the “prevention of toxic beta amyloid oligomer formation in vitro” value is given as “only minimally prevent”. Besides, the “prevention of toxic beta amyloid oligomer formation in vitro” value in [3] (16-64 uM curcumin) is given as “completely prevent”. For the same compound, the “curcumin concentration that inhibits the in vitro formation of amyloid beta oligomers” value in series [3] (in vitro, Yang 2005) was 0.1 to 1.0 µM. Further, the “curcumin concentration that blocks the in vitro toxicity of Aβ1-42 oligomers” value in series [4] is 0.1 to 1.0 µM. Also, in [5], the “reduction of beta amyloid plaque burden” value is reported as 30-40% and the “reduction of the amount of soluble beta amyloid” value was 43%. Besides, in [6], the “reduction of amyloid beta deposits induced by beta amyloid infusion” value was “about 80%”. For the same compound, in [7], the “solubility in water” value was “insoluble in water” and the “solubility in water (parent compound)” value was “about 0.004 mg/ml”. The “inhibition of UGT activity in the conjugation of 1-naphthol” value in series [8] is “moderate inhibition”. For the same compound, in series [9], the “Rhodamine-123 (R-123) efflux” value was “inhibited”. Also, the “increase in immunosuppression of antigen-stimulated spleen cytotoxic T-lymphocyte proliferation” value in [10] is given as “six-fold increase”.

On to `NC(=O)N1c2ccccc2C=Cc2ccccc21` [Carbamazepine], for which the “Carbamazepine Peak Brain Tissue” value in [11] (Intranasal, 0.2 mg/kg) was 12 µg/g; in [11] (Intravenous, 8.0 mg/kg), 4 µg/g; in series [11] (Oral, 16 mg/kg), 3 µg/g. Further, the “Carbamazepine Peak Brain Tissue, ~uM” value is around 48 µM in series [12] (Intranasal, 0.2 mg/kg); around 16 µM in series [12] (Intravenous, 8.0 mg/kg); around 12 µM in series [12] (Oral, 16 mg/kg).

`CCN(CC)CCC(=O)Oc1ccc2c(c1)CC[C@@H]1[C@@H]2CC[C@]2(C)[C@@H](O)CC[C@@H]12.Cl` [3-DEAPE2HCl, 3-N,N-diethylamino propionyl ester hydrochloride]: the “increase in water solubility” value in series [13] is recorded as above 1000 fold. For the same compound, the “water solubility of estradiol modified with the moiety” value in series [7] (Al-Ghananeem) is recorded as “about 20 mg/ml”.

In the case of `O=C(C=Cc1ccc(O)cc1)CC(=O)CCc1ccc(O)cc1` [compound 34, 1,7-bis(4-hydroxyphenyl)-1-heptene-3,5-dione], the “potency as neuroprotectant against beta amyloid relative to curcumin” value in series [2] (analysis of the Park data) was around 10 fold.
